# Data from PubChem BioAssay (NCI).
#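 Exposure lasted 48 hours, with cells grown in 96-well plates and compounds tested at five concentrations. GI50 marks 50% less growth. TGI denotes the concentration required for complete inhibition of growth.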
# Tests used:
# Assay in all cases: NCI tumour cell line growth inhibition, 48 h
# [1] = tested on: ACHN renal
# [2] = tested on: SR leukemia
# [3] = tested on: SNB-75 CNS
# [4] = tested on: OVCAR-5 ovarian
# [5] = tested on: UACC-257 melanoma
# [6] = tested on: COLO 205 colon
# [7] = tested on: HCT-116 colon
# [8] = tested on: NCI-H23 lung
# [9] = tested on: SF-295 CNS
# [10] = tested on: HOP-92 NSCLC
Structure (SMILES),GI50 [1],TGI [1],GI50 [2],TGI [2],GI50 [3],TGI [3],GI50 [4],TGI [4],GI50 [5],TGI [5],GI50 [6],TGI [6],GI50 [7],TGI [7],GI50 [8],TGI [8],GI50 [9],TGI [9],GI50 [10],TGI [10]
O=C1/C(=C/c2ccc([N+](=O)[O-])cc2)COc2ccc(O)c(O)c21,1.5 µM,2.92 µM,0.463 µM,> 100 µM,1.55 µM,3.82 µM,1.81 µM,3.74 µM,1.89 µM,4.32 µM,1.47 µM,3.69 µM,1.57 µM,3.35 µM,1.77 µM,3.74 µM,2.21 µM,5.17 µM,1.99 µM,4.96 µM
O=C(CSC(=S)N1CCCCC1)Nc1nc2c(s1)CCCC2,–,> 100 µM,–,> 100 µM,–,> 100 µM,–,> 100 µM,–,57.7 µM,–,> 100 µM,–,32.2 µM,–,92.7 µM,–,79.3 µM,–,94.3 µM
COc1cc2c(c(OC)c1O)C(=O)C(OC)C(c1ccc(O)c(O)c1)O2 (centres undefined),0.662 µM,> 100 µM,0.0689 µM,> 100 µM,0.0405 µM,> 79.3 µM,2.27 µM,> 100 µM,> 100 µM,> 100 µM,23.5 µM,> 82.8 µM,0.396 µM,> 100 µM,0.385 µM,> 100 µM,0.471 µM,4.95 µM,0.697 µM,> 28.9 µM
CC1=C(C#N)C23C(=O)c4ccccc4C(O)=C2C(=O)C=CC3(O)N1Cc1ccccc1 (centres undefined),29.4 µM,> 100 µM,33.7 µM,> 100 µM,36.6 µM,> 100 µM,30.3 µM,> 100 µM,35 µM,> 100 µM,16.6 µM,34.4 µM,34.8 µM,> 100 µM,29.9 µM,> 100 µM,17.6 µM,> 100 µM,39.4 µM,> 100 µM
CCCCCCCCSC1=CC(=O)c2nc3ccccc3c3ccnc1c23,52.2 µM,> 100 µM,22.7 µM,> 100 µM,> 100 µM,> 100 µM,> 100 µM,> 100 µM,41.1 µM,> 100 µM,> 100 µM,> 100 µM,43.1 µM,> 100 µM,58.2 µM,> 100 µM,> 100 µM,> 100 µM,80 µM,> 100 µM
Cn1ccnc1C(=O)/C=C/c1ccc(CC(=O)Nc2ccc(Br)cc2)cc1,4.4 µM,> 16.7 µM,0.575 µM,> 16.7 µM,3.05 µM,> 16.7 µM,2.74 µM,7.38 µM,15.6 µM,> 16.7 µM,3.56 µM,8.28 µM,1.56 µM,4.63 µM,2.75 µM,7.1 µM,3.22 µM,8.89 µM,3.15 µM,8.26 µM
O=C(NCCNc1nccc(-c2c(-c3cccc(O)c3)nc3sccn23)n1)c1ccccc1O,3.35 µM,> 53.4 µM,3.71 µM,> 56.7 µM,2.29 µM,19.6 µM,13.3 µM,65.3 µM,0.473 µM,11.2 µM,5.32 µM,23.4 µM,3.42 µM,14.9 µM,4.51 µM,36.8 µM,4.18 µM,26.6 µM,2.92 µM,28.6 µM
O=C(Nc1ccc(I)cc1)c1cc([N+](=O)[O-])ccc1O,9.28 µM,> 100 µM,6.09 µM,46.5 µM,8.89 µM,67 µM,27.9 µM,> 100 µM,6.89 µM,34.6 µM,10.9 µM,28.1 µM,6.21 µM,31.7 µM,4.07 µM,> 100 µM,4.02 µM,39.8 µM,0.709 µM,3.99 µM
Cc1ccc(-c2nnc(-c3ccc4ccccc4c3)o2)cc1,–,> 100 µM,–,> 68.4 µM,–,82.7 µM,–,> 100 µM,–,> 100 µM,–,> 100 µM,–,> 100 µM,–,> 100 µM,–,> 100 µM,–,> 100 µM
Nc1cc2nc3ccccc3sc-2cc1=O,2.5 µM,11.1 µM,4.27 µM,> 100 µM,2.59 µM,7.71 µM,1.93 µM,4.08 µM,2.3 µM,5.83 µM,2.16 µM,4.61 µM,2.56 µM,10.3 µM,1.54 µM,3.76 µM,2.44 µM,7.35 µM,2.77 µM,9.59 µM
O=C(CN1CCN(c2cc3c(cc2F)c(=O)c(C(=O)N/N=C/c2ccccc2O)cn3C2CC2)CC1)N/N=C\c1ccccc1O,0.351 µM,> 100 µM,0.304 µM,> 100 µM,1.11 µM,> 100 µM,1.62 µM,> 100 µM,0.912 µM,> 100 µM,0.371 µM,> 100 µM,0.443 µM,> 100 µM,0.801 µM,> 100 µM,0.931 µM,> 100 µM,2.15 µM,> 100 µM
CN(C)c1ccc(-c2cc(-c3ccc(Nc4nc(Nc5ccc(Cl)cc5)nc(Nc5ccc(Cl)cc5)n4)cc3)no2)cc1,7.9 µM,> 100 µM,–,1.74 µM,5.12 µM,28.1 µM,17.3 µM,50.2 µM,9.28 µM,68.3 µM,2.89 µM,16 µM,2.84 µM,11.8 µM,6.41 µM,35.8 µM,6.36 µM,43.8 µM,2.69 µM,10.6 µM
COc1ccc2nc3cc(Cl)ccc3c(Sc3ccccc3[N+](=O)[O-])c2c1,–,> 100 µM,–,> 100 µM,–,37.3 µM,–,> 100 µM,–,> 100 µM,–,37.7 µM,–,> 100 µM,–,> 100 µM,–,> 100 µM,–,> 100 µM
Cc1cc(=O)[nH]c2cc3oc4ccccc4c3cc12,–,> 100 µM,–,> 44.3 µM,–,> 100 µM,–,> 100 µM,–,> 100 µM,–,> 100 µM,–,> 100 µM,–,> 100 µM,–,> 100 µM,–,> 100 µM
O=C(CCl)N1c2ccccc2Oc2ccc3ccccc3c21,1.37 µM,2.82 µM,0.305 µM,1.06 µM,1.47 µM,2.82 µM,1.81 µM,3.59 µM,1.53 µM,3.16 µM,0.894 µM,2.35 µM,0.358 µM,1.29 µM,1.31 µM,3.08 µM,2.41 µM,5.92 µM,1.59 µM,3.31 µM
CSc1ccc(/C=C2\CN(C)C/C(=C\c3ccc(SC)cc3)C2=O)cc1,–,> 100 µM,–,41.4 µM,–,38.2 µM,–,> 100 µM,–,> 100 µM,–,61.6 µM,–,> 100 µM,–,34.5 µM,–,> 100 µM,–,> 100 µM
CCN(CC)CC(C(=O)Nc1c(C)cccc1C)/C(C)=N\NC(=O)C[N+](C)(C)C (centres undefined),–,> 100 µM,–,> 100 µM,–,> 100 µM,–,> 100 µM,–,> 100 µM,–,> 100 µM,–,> 100 µM,–,> 100 µM,–,> 100 µM,–,> 100 µM
